Here are results for 14 compounds from US8455665B2, “3-phenoxymethylpyrrolidine compounds” (Theravance, Inc., priority 2009, dated 2013).

Design in all cases: expressed in transfected cells; host or cells: HEK-293
Experiment [1] deals with T1, SERT (Homo sapiens, UniProt P31645). The experiment in a line: hSERT membrane radioligand binding assay (3H-citalopram). Particulars: hSERT membranes (HEK-293), 1.0 nM 3H-citalopram; for Ki: read-out: SERT pKi (converted). As for the experimental part:
(§1) Membrane radioligand binding assays were used to measure inhibition of labeled ligand (^3H-citalopram or ^3H-nisoxetine or ^3H-WIN35428) binding to membranes prepared from cells expressing the respective human recombinant transporter (hSERT or hNET or hDAT) in order to determine the pKi values of test compounds at the transporters.
(§2) Recombinant human embryonic kidney (HEK-293) derived cell lines stably transfected with hSERT or hNET, respectively, were grown in DMEM medium supplemented with 10% dialyzed FBS (for hSERT) or FBS (for hNET), 100 μg/ml penicillin, 100 μg/ml streptomycin, 2 mM L-glutamine and 250 μg/ml of the aminoglycoside antibiotic G418, in a 5% CO2 humidified incubator at 37° C. When cultures reached 80% confluence, the cells were washed thoroughly in PBS (without Ca^2+ and Mg^2+) and lifted with 5 mM EDTA in PBS. Cells were pelleted by centrifugation, resuspended in lysis buffer (10 mM Tris-HCl, pH7.5 containing 1 mM EDTA), homogenized, pelleted by centrifugation, then resuspended in 50 mM Tris-HCl, pH 7.5 and 10% sucrose at 4° C. Protein concentration of the membrane suspension was determined using a Bio-Rad Bradford Protein Assay kit. Membranes were snap frozen and stored at −80° C. Chinese hamster ovary membranes expressing hDAT (CHO-DAT) were purchased from PerkinElmer and stored at −80° C.
(§3) Binding assays were performed in a 96-well assay plate in a total volume of 200 μl assay buffer (50 mM Tris-HCl, 120 mM NaCl, 5 mM KCl, pH 7.4) with 0.5, 1, and 3 μg membrane protein, for SERT, NET and DAT, respectively.
(§4) Stock solutions (10 mM in DMSO) of test compound were prepared and serial dilutions made using Dilution Buffer (50 mM Tris-HCl, 120 mM NaCl, 5 mM KCl, pH 7.4, 0.1% BSA, 400 μM ascorbic acid). Non-specific radioligand binding was determined in the presence of 1 μM duloxetine, 1 μM desipramine or 10 μM GBR12909 (each in Dilution Buffer) for the hSERT, hNET or hDAT assays, respectively.
(§5) Following a 60 minute incubation at 22° C. (or a period sufficient to reach equilibrium), the membranes were harvested by rapid filtration over a 96-well UniFilter GF/B plate, pretreated with 0.3% polyethyleneimine, and washed 6 times with […] (50 mM Tris-HCl, 0.9% NaCl, pH 7.5 at 4° C.). Plates were dried overnight at room temperature, approximately […] of MicroScint™-20 (Perkin Elmer) added and bound radioactivity quantitated via liquid scintillation spectroscopy. Inhibition curves and saturation isotherms were analyzed using GraphPad Prism Software package (GraphPad Software, Inc., San Diego, Calif.). IC50 values were generated from concentration response curves using the Sigmoidal Dose Response (variable slope) algorithm in Prism GraphPad. Kd and Bmax values for the radioligand were generated from saturation isotherms using the Saturation Binding Global Fit algorithm in Prism GraphPad. pKi (negative decadic logarithm of Ki) values for test compounds were calculated from the best-fit IC50 values, and the Kd value of the radioligand, using the Cheng-Prusoff equation (Cheng & Prusoff (1973) Biochem. Pharmacol. 22(23):3099-3108): Ki=IC50/(1+[L]/Kd), where [L]=concentration radioligand.

Experiment [2] has as its target T2, NET (Homo sapiens, UniProt P23975). The experiment is described as follows: hNET membrane radioligand binding assay (3H-nisoxetine). Conditions: hNET membranes (HEK-293), 1.0 nM 3H-nisoxetine; for Ki: read-out: NET pKi (converted). As for the experimental part:
as §1, §2, §3, §4, §5

The target of experiment [3] is T1, SERT. The experiment in a line: hSERT neurotransmitter uptake assay (3H-5-HT). Format: cell-based. Conditions: serotonin reuptake inhibition, HEK-293 hSERT cells, 3H-5-HT (no asterisk); for IC50: read-out: SERT pIC50 (converted). The protocol: (§6) Neurotransmitter uptake assays were used to measure inhibition of ^3H-serotonin (^3H-5-HT), ^3H-norepinephrine (^3H-NE), and ^3H-dopamine (^3H-DA) uptake into cells expressing the respective transporter (hSERT, hNET or hDAT) in order to determine the pIC50 values of test compounds at the transporters.
(§7) HEK-293 derived cell lines stably-transfected with hSERT, hNET, or hDAT, respectively, were grown in DMEM medium supplemented with 10% dialyzed FBS (for hSERT) or FBS (for hNET and hDAT), 100 μg/ml penicillin, 100 μg/ml streptomycin, 2 mM L-glutamine and 250 μg/ml of the aminoglycoside antibiotic G418 (for hSERT and hNET) or 800 ug/ml (for hDAT), in a 5% CO2 humidified incubator at 37° C. When cultures reached 80% confluence, the cells were washed thoroughly in PBS (without Ca^2+ and Mg^2+) and lifted with 5 mM EDTA in PBS. Cells were harvested by centrifugation at 1100 rpm for 5 minutes, washed once by resuspension in PBS, then centrifuged. The supernatant was discarded and the cell pellet resuspended, by gentle trituration, in room temperature Krebs-Ringer bicarbonate buffer containing HEPES (10 mM), CaCl2 (2.2 mM), ascorbic acid (200 μM) and pargyline (200 μM), pH 7.4. The final concentration of cells in the cell suspension was 7.5×10^4 cells/ml, 1.25×10^5 cells/ml, and 5.0×10^4 cells/ml for SERT, NET, and DAT cell lines, respectively.
(§8) Neurotransmitter uptake assays were performed in a 96-well assay plate in a total volume of 400 μl assay buffer (Krebs-Ringer bicarbonate buffer containing HEPES (10 mM), CaCl2 (2.2 mM), ascorbic acid (200 μM) and pargyline (200 μM), pH 7.4) with 1.5×10^4 and 2.5×10^4 cells, for SERT, NET, and DAT, respectively. […] Stock solutions (10 mM in DMSO) of test compound were prepared and serial dilutions prepared using 50 mM Tris-HCl, 120 mM NaCl, 5 mM KCl, pH 7.4, 0.1% BSA, 400 μM ascorbic acid. Test compounds were incubated for 30 minutes at 37° C. with the respective cells, prior to addition of radiolabeled neurotransmitter, ^3H-5-HT (20 nM final concentration), ^3H-NE (50 nM final concentration) or ^3H-DA (100 nM final concentration). Non-specific neurotransmitter uptake was determined in the presence of 2.5 μM duloxetine, 2.5 μM desipramine, or 10 uM GBR-12909 (each in Dilution Buffer) for the hSERT, hNET, or hDAT assays, respectively.
(§9) Following a 10 minute incubation, at 37° C., with radioligand, the cells were harvested by rapid filtration over a 96-well UniFilter GF/B plate, pretreated with 1% BSA, and washed 6 times with 650 μl wash buffer (ice cold PBS). Plates were dried overnight at 37° C., ˜45 μl of MicroScint™-20 (Perkin Elmer) added and incorporated radioactivity quantitated via liquid scintillation spectroscopy Inhibition curves were analyzed using GraphPad Prism Software package (GraphPad Software, Inc., San Diego, Calif.). IC50 values were generated from concentration response curves using the Sigmoidal Dose Response (variable slope) algorithm in Prism GraphPad.

Experiment [4] deals with T2, NET. The experiment in a line: hNET neurotransmitter uptake assay (3H-NE). Conditions: norepinephrine reuptake inhibition, HEK-293 hNET cells, 3H-NE (no asterisk); for IC50: read-out: NET pIC50 (converted). Type of experiment: cell-based. As for the experimental part:
as §6, §7, §8, §9

Where only a bound is given, the exact number is not on record here.

T1 sequence (P31645 whole entry): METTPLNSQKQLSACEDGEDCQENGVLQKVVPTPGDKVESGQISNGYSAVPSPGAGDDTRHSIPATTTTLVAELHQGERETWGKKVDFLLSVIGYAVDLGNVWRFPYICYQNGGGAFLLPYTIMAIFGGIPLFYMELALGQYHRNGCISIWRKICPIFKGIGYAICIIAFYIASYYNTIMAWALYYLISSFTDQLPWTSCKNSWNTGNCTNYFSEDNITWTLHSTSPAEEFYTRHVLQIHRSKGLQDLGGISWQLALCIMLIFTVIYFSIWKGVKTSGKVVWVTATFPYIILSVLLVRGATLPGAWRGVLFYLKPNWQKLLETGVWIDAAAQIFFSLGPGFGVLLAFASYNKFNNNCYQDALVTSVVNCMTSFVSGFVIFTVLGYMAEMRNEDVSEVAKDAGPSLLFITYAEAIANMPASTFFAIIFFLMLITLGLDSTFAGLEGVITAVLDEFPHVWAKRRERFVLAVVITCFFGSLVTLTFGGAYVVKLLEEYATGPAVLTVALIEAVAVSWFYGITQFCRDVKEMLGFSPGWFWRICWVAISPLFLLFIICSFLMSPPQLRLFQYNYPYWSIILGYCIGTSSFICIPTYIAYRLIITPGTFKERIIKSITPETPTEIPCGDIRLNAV
T2 sequence (P23975 whole entry): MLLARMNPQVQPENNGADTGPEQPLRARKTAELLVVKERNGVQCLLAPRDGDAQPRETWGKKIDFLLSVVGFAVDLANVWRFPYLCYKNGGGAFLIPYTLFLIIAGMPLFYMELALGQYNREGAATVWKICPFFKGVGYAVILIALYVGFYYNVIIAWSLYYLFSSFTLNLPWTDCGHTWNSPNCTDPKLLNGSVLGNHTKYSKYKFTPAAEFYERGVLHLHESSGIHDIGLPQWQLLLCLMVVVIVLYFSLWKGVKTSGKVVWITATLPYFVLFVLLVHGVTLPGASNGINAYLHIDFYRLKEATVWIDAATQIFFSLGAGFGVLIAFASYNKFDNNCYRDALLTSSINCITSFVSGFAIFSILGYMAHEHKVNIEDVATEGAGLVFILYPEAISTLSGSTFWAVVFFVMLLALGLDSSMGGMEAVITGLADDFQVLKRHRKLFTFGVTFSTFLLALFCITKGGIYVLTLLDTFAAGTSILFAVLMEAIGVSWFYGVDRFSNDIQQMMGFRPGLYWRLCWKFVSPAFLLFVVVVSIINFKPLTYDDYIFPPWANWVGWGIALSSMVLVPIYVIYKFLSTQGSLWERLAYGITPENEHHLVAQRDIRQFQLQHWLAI

Take `COC[C@@H](Oc1cccc(Cl)c1C(F)(F)F)[C@H]1CCNC1` [Example 4-20, (S)-3-[(S)-1-(3-Chloro-2-trifluoromethylphenoxy)-2-methoxyethyl]pyrrolidine]: the Ki in experiment [1] and in experiment [2] was at most 10 nM each time. Besides, the results for the IC50 in experiment [3] and in experiment [4] were at most 100 nM and at most 10 nM, respectively.
As for `Clc1ccc(O[C@H](C2CCOCC2)[C@@H]2CCNC2)cc1` [Example 13-9, (R)-3-[(R)-(4-Chlorophenoxy)(tetrahydropyran-4-yl)methyl]pyrrolidine], the Ki in experiment [1] and in experiment [2] was at most 10 nM throughout. The IC50 in experiment [3] and in experiment [4] was at most 10 nM in each case.
Turning to `Fc1cccc(O[C@@H](C2CCOCC2)[C@@H]2CCNC2)c1Cl` [Example 13-17, (R)-3-[(S)-(2-Chloro-3-fluorophenoxy)(tetrahydropyran-4-yl)methyl]pyrrolidine], the Ki in experiment [1] and in experiment [2] was at most 10 nM throughout. In addition, the IC50 in experiment [3] and in experiment [4] was at most 10 nM in each case.
On to `Clc1ccccc1O[C@@H](C1CCOCC1)[C@@H]1CCNC1` [Example 13-3, (R)-3-[(S)-(2-Chlorophenoxy)(tetrahydropyran-4-yl)methyl]pyrrolidine], for which the Ki in experiment [1] and in experiment [2] was at most 10 nM throughout. Further, the IC50 is at most 100 nM in experiment [3] and at most 10 nM in experiment [4].
`CCOC[C@@H](Oc1cccc(Cl)c1Cl)[C@H]1CCNC1` [Example 7-8, (S)-3-[(S)-1-(2,3-Dichlorophenoxy)-2-ethoxyethyl]pyrrolidine]: the Ki in experiment [1] and in experiment [2] was at most 10 nM each time. In addition, the IC50 in experiment [3] and in experiment [4] was at most 10 nM each time.
For `COC[C@H](Oc1cccc(Cl)c1Cl)[C@H]1CCNC1` [Example 4-10], the “SERT pKi” value in experiment [1] is given as “≧8.0”. Also, the “NET pKi” value in experiment [2] was “≧8.0”. For the same compound, the “SERT pIC50” value in experiment [3] is “≧8.0”. Besides, the “NET pIC50” value in experiment [4] is recorded as “≧8.0”.
As to `COC[C@@H](Oc1cccc(F)c1Cl)[C@H]1CCNC1` [Example 4-13, (S)-3-[(S)-1-(2-Chloro-3-fluorophenoxy)-2-methoxyethyl]pyrrolidine], the Ki in experiment [1] and in experiment [2] was at most 10 nM in each case. In addition, the IC50 in experiment [3] and in experiment [4] was at most 100 nM in each case.
As for `Fc1cccc(O[C@H](C2CCOCC2)[C@H]2CCNC2)c1Cl` [Example 13-15, (S)-3-[(R)-(2-Chloro-3-fluorophenoxy)(tetrahydropyran-4-yl)methyl]pyrrolidine], the Ki in experiment [1] and in experiment [2] was at most 10 nM throughout. The IC50 in experiment [3] and in experiment [4] was at most 10 nM in each case.
`COC[C@H](Oc1ccc(Cl)cc1C)[C@H]1CCNC1` [Example 4-25, (S)-3-[(R)-1-(4-Chloro-2-methylphenoxy)-2-methoxyethyl]pyrrolidine]: the Ki in experiment [1] and in experiment [2] was at most 10 nM throughout. In addition, the IC50 in experiment [3] and in experiment [4] was at most 10 nM throughout.
For the compound `Clc1cccc(Cl)c1O[C@@H](C1CCOCC1)[C@H]1CCNC1` [Example 13-24, (S)-3-[(S)-(2,6-Dichlorophenoxy)(tetrahydropyran-4-yl)methyl]pyrrolidine], the Ki in experiment [1] and in experiment [2] was at most 10 nM throughout. The IC50 in experiment [3] and in experiment [4] was at most 10 nM throughout.
For `Fc1cccc(O[C@@H](C2CCOCC2)[C@H]2CCNC2)c1Cl` [Example 13-14, (S)-3-[(S)-(2-Chloro-3-fluorophenoxy)(tetrahydropyran-4-yl)methyl]pyrrolidine], the Ki in experiment [1] and in experiment [2] was at most 10 nM throughout. Further, the IC50 was at most 100 nM in experiment [3] and at most 10 nM in experiment [4].
As to `Clc1ccc(O[C@@H](C2CCOCC2)[C@H]2CCNC2)c(Cl)c1` [Example 13-22, (S)-3-[(S)-(2,4-Dichlorophenoxy)(tetrahydropyran-4-yl)methyl]pyrrolidine], the Ki in experiment [1] is at most 100 nM; in experiment [2], at most 10 nM. The values for the IC50 in experiment [3] and in experiment [4] were at most 100 nM and at most 10 nM, respectively.
As to `COC[C@H](Oc1cccc(Cl)c1C(F)(F)F)[C@H]1CCNC1` [Example 4-21, (S)-3-[(R)-1-(3-Chloro-2-trifluoromethylphenoxy)-2-methoxyethyl]pyrrolidine], the Ki in experiment [1] and in experiment [2] was at most 10 nM throughout. In addition, the IC50 is at most 100 nM in experiment [3] and at most 10 nM in experiment [4].
`OC[C@@H](Oc1ccc(Cl)cc1Cl)[C@@H]1CCNC1` (stereo in doubt) [Example 2-1, (R)-2-(2,4-Dichlorophenoxy)-2-(S)-pyrrolidin-3-yl-ethanol]: the IC50 in experiment [3] and in experiment [4] was at most 100 nM each time.
